# Source: the Kinase Knowledgebase extract (Sharma et al. 2016)
# What was measured:
# MAPK14 (human) [1] = molecular target: MAPK14 (human) (UniProt Q16539); experiment: Inhibition of MAPK14 Kinase Activity
# MAPK14 (human) [2] = molecular target: MAPK14 (human) (UniProt Q16539); experiment: Assessment of MAPK14 Kinase Activity
# Sequence of MAPK14 (human) (Q16539 whole entry, looked up): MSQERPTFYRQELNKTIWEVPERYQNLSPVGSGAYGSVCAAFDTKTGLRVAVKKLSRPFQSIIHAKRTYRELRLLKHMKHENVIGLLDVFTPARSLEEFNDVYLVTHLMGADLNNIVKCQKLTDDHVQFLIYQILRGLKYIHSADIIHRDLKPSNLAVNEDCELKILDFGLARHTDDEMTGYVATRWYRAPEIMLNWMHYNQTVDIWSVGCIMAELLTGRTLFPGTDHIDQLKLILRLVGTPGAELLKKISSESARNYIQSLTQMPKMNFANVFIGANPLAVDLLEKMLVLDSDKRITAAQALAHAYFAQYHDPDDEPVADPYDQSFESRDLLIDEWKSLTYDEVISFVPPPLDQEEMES
Compound,IC50 (MAPK14 (human) [1]) [µM],IC50 (MAPK14 (human) [2]) [µM]
Cc1cc(C)cc(CNC(=O)c2ccc(-c3cc(C(=O)NC4CC4)cc(F)c3C)[n+]([O-])c2)c1,< 10,
Cc1c(F)cc(C(=O)NC2CC2)cc1-c1ccc(C(=O)N[C@@H](C)C(C)C)c[n+]1[O-],< 10,< 10
Cc1c(F)cc(C(=O)NC2CC2)cc1-c1ccc(C(=O)NC(C)(C)C)c[n+]1[O-],< 10,< 10
Cc1c(F)cc(C(=O)NC2CC2)cc1-c1ccc(C(=O)NCc2cc(F)ccc2C(F)(F)F)c[n+]1[O-],< 10,

# Now from value to compound:
IC50 (MAPK14 (human) [1]) [µM],IC50 (MAPK14 (human) [2]) [µM],Compound
< 10,,Cc1c(F)cc(C(=O)NC2CC2)cc1-c1ccc(C(=O)N[C@H](C)C(C)(C)C)c[n+]1[O-]
< 10,< 10,Cc1c(F)cc(C(=O)NC2CC2)cc1-c1ccc(C(=O)N[C@@H](C)C(C)(C)C)c[n+]1[O-]
< 10,,Cc1c(F)cc(C(=O)NC2CC2)cc1-c1ccc(C(=O)NCC(C)C)c[n+]1[O-]
< 10,< 10,Cc1c(F)cc(C(=O)NC2CC2)cc1-c1ccc(C(=O)NCc2cc(C(F)(F)F)ccc2F)c[n+]1[O-]
